# Measured values reported in patent US5519115A, “Reverse antimicrobial peptides” (priority 1993, dated 1996).
# Tested on: Erwinia carotovora carotovora strain SR319 (Ecc SR319)
# Test: Antibacterial bioassay (MCIC)
# Type: cell-based
# Protocol: Erwinia carotovora carotovora strain SR319 (Ecc SR319) (a gift of Dr. C. H. Liao, USDA-ARS, Philadelphia, Pa.) was streaked on a plate of Luria-Bertani ("LB") broth agar and grown overnight at 28° C. After 24 hours, a loopful of Ecc SR319 was picked from the agar plate and was added to 3 ml of LB broth (10 g Bacto-tryptone, 5 g Bacto-yeast extract, and 10 g sodium chloride per liter of solution; autoclaved sterile) in a capped sterile 10 ml test tube. This culture was grown overnight before its optical density at 630 nm was recorded using a Dynatech MR 600 microplate reader (Dynatech Laboratories, Inc., Alexandria, Va.). A portion of the overnight culture was adjusted with Luria broth to obtain a culture with an optical density at 630 nm of 0.2. About 250 microliters of this culture was added to 2250 microliters of Luria broth in a capped, sterile 10 ml test tube before this diluted culture was grown for 3-4 hours at 28° C. in a shaking incubator until the optical density of the freshly grown culture at 630 nm reached 0.2. […] The optical density of each Ecc SR319 culture well was recorded at 20 hours and then at 44 hours. A minimum complete inhibitory concentration (MCIC) was then determined for each replicate set of varying peptide concentrations at which no bacterial growth was observed. […]
substance,measurement,setting,value
Met-Mag 1 dimer (head-to-tail) [Peptide No. 9],MCIC Values (Ecc SR319),"mean after 20 hours of treatment, at least three replicate experiments",33 +/- 5 micrograms per mL
same,activity against Ecc SR319 compared with parent monomers (in words),"tested at equivalent microgram per mL quantities, parent monomers Pep Nos. 1, 2, 4, and 12",better activity than at least one of the parent monomers
